Source: paper PMC4240912, “Multifaceted interplay between lipophilicity, protein interaction and luminescence parameters of non-intercalative ruthenium(II) polypyridyl complexes controlling cellular imaging and cytotoxic properties” (Journal of Biological Inorganic Chemistry, 2014)

Assays:
[1] = biological target: human serum albumin (HSA) (Homo sapiens, UniProt P02768); assay: HSA fluorescence quenching (protein-binding experiments); conditions: [HSA] = 1 μM, [Ru] 0–10 μM, PBS pH 7.4, 37 °C
Protocol: The protein stock solution was prepared by dissolving human serum albumin (HSA) in water and its concentration was determined spectrophotometrically from the molar absorptivity of 4.4 × 10^4 cm^−1 M^−1 at 280 nm. The emission spectra were recorded between 305 and 500 nm upon excitation at 295 nm resulting in selective excitation of tryptophan residue of HSA. The average of three scans was subjected to smoothing and the fluorescence intensities were corrected due to dilution effects. Protein-binding experiments were conducted by measuring fluorescence spectra of protein solution (1 μM) in the presence of different amounts of ruthenium compounds (0–10 μM) in PBS buffer pH 7.4 at 37 °C. Ru–protein solutions were allowed to incubate for 5 min before the emission spectra were recorded. The quantum yield and lifetime of luminescence for ruthenium complexes in the present of HSA (1 μM) was measured using the same procedure as described for ruthenium complexes alone (the HSA/Ru-complex ratio is given in the figure caption). […]
When molecules are bound to HSA, the change in fluorescence of HSA (Trp214) is induced ether by quenching by binding of molecules in close proximity of the residue or by conformational change of protein caused by the binding or other interactions. Albumin […]
polypyridyl complexes. The contribution to the observed emission from ruthenium complex is marginal. The Stern-Volmer equation has been employed for quantitative analysis of the […]
where F0 and F are the fluorescence intensities of HSA in the absence and the presence of quencher (Q, Ru complex), respectively; kq is the bimolecular quenching constant; τ0 is the average lifetime of the HSA in the absence of quencher (7 × 10-9 s), [Q] is the concentration of quencher, KSV is the Stern–Volmer constant. Since ruthenium complexes both absorb light at the excitation and the emission wavelengths in order to correlate the inner filter effect the following equation was used: where Fcor and F are the corrected/uncorrected fluorescence intensities of HSA, Aem and Aex are the absorbance value of the solution at the emission and the excitation wavelength […]
quenching involving some type of binding interaction between HSA and ruthenium complexes. In this case the Stern-Volmer constant can be consider as an association constant for formation of HSA-Ru-complexes adducts. […]
(also on this page, place not known: nm , Stern -Volmer ][1][1 0 0 QKQkF SVq ·+=·+= τ 10 -9 [ Q] Stern –Volmer es 210 exem AA cor FF + ·= F -binding ct -DNA ba nds complex w ith DNA)

[2] = tested on: Calf thymus deoxyribonucleic acid; assay: DNA absorption titration (intrinsic DNA-binding constant); conditions: [Ru] = 10 µM, 0.05 M Tris/HCl pH 7.4, 37 °C
Protocol: Calf thymus deoxyribonucleic acid was purchased from Sigma-Aldrich and its stock solution was prepared by dissolving of solid DNA in water. DNA concentrations per nucleotide were determined by absorption spectroscopy using the molar absorption coefficient of 6,600 M^−1cm^−1 at the wavelength of 260 nm. DNA-binding experiments were performed in 0.05 M Tris/HCl buffer (pH 7.4) at 37 °C. […] Ruthenium–DNA solutions were allowed to incubate for 5 min before the spectra were recorded. The intrinsic DNA-binding constant was calculated from the following Eq. [4]. DNA/εa-εf=DNA/εa-εf+1/Kbεb-εf, where [DNA] is the total DNA concentration in nucleotides, ε a, ε b, ε f are the apparent absorption coefficients of A/[ruthenium complex] of the MLCT absorption band at a given DNA concentration, fully bound and free ruthenium complex, respectively, K b is binding constant.
To be submitted to Journal of Biological Inorganic Chemistry intercalation.[4] The hypochromism and batochromism at MLCT bands is found usually higher for other reported polypyridyl DNA intercalative Ru(II) complexes.[5-8] To assess this interaction the intrinsic DNA-binding constant was calculated from the following equation […]
where [DNA] is the total DNA concentration in nucleotides, εa, εb, εf are the apparent absorption coefficients of A/[ruthenium complex] of the MLCT absorption band at a given DNA concentration, fully bound and free ruthenium complex, respectively, Kb is binding […]
isosbestic points and gradual decrease of the absorption of MLCT bands. This observation […]
rather week interaction with DNA it is not further discussed.
Fig. S3. Changes in absorption spectra of [Ru(dip)2(CH3bpy-DCU)]2+ and [Ru(dip)2(CH3bpy-CH3)]2+ after addition of ct-DNA. Experimental conditions: [Ru] = 10 μM; Tris/HCl pH 7.4, T = 37°C, A. [DNA] = 0 – 2 μM; B. [DNA] = 5 – 120 μM. […]

[3] = n-octan-1-ol/water partition (lipophilicity); assay type: physicochemical; conditions: 25 °C
Protocol: The lipophilicity of the ruthenium(II) complexes, which is referred to log P o/w (n-octan-1-ol/water partition coefficient), was measured as following. Ruthenium complexes were dissolved in n-octan-1-ol (to mM concentration), then solutions were added to water and the mixtures were stirred sufficiently for partitioning at 25 °C for 24 h. After that the mixtures were left for equilibration for another 2 h. The concentration of the compounds in the water phase was measured spectrophotometrically and P o/w value was calculated according to the equation: PO/w=coctanolbefore-cwater/cwater , where coctanolbefore is an initial concentration of ruthenium complex, c water denotes final concentration in water. The experiment was conducted in triplicates.

[4] = tested on: Human lung adenocarcinoma epithelial cell line (A549); assay: Alamar Blue cell viability, A549; assay type: cell-based; conditions: A549, 24 h
Protocol: 10% FBS, 1% peniciline and streptomycin and 0.2% fungizone. Cells were routinely cultured at 37 °C in a humidified incubator in 5% CO2 atmosphere.
Cell viability was measured using Alamar Blue assay. Cells were seeded on 96 wells plate with density of 1 × 10^4 cells per cm2 and cultured for 1 day. Then cells were incubated with various concentrations of compounds in medium with or without 2% FBS for 24 and 48 h under normoxic and hypoxic conditions in the darkness. Next cells were washed with PBS and incubated in Alamar Blue solution for 3 h. The cell viability was quantified at 605 nm using 560 nm excitation light (VICTOR 3V multilabel plate reader PerkinElmer or Tecan Infinite200 Reader). Experiments were performed in triplicates and each experiment was performed at least three times to get the mean values ± standard derivation. The viability was calculated with regard to the untreated cells control. The IC50 values were determined using Hill equation (Origin 9.0). […]

Chain of human serum albumin (HSA) (P02768 25-609): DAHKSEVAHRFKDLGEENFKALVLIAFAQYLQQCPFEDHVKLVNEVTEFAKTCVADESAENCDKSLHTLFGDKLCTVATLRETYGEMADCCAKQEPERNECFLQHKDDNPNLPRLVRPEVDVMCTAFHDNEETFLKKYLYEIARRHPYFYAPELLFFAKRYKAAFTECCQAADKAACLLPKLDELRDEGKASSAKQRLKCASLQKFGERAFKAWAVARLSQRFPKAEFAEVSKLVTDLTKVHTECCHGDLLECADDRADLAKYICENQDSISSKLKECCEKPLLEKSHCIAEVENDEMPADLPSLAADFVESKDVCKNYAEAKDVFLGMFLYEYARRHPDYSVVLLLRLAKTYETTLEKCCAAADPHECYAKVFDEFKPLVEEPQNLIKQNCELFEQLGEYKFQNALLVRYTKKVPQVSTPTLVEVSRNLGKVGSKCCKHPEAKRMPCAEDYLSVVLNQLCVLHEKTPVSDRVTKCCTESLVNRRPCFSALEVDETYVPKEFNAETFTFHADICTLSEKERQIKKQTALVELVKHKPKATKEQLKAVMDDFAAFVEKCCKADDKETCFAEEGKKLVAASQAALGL

Row | Molecule | K a, association constant for formation of HSA-ruthenium(II) polypyridyl complex adducts [1] | K b, binding constant for formation of DNA-ruthenium(II) polypyridyl complex adducts [2] | log P o/w [3] | IC50 ([4]; with serum (2%)) | IC50 ([4]; without serum)
1 | Cc1ccnc(-c2cc(C)ccn2)c1.[Ru+2].c1ccc(-c2ccnc3c2ccc2c(-c4ccccc4)ccnc23)cc1.c1ccc(-c2ccnc3c2ccc2c(-c4ccccc4)ccnc23)cc1 [[Ru(dip)2(CH3bpy-CH3)]^2+] | 1.24 ± 0.06 ×10^5 M^−1 | 0.53 ± 0.03 ×10^5 M^−1 | 0.484 ± 0.046 | 11.6 ± 2.19 µM | 5.47 ± 0.87 µM
2 | Cc1ccnc(-c2cc(C(=O)[O-])ccn2)c1.[Ru+2].c1ccc(-c2ccnc3c2ccc2c(-c4ccccc4)ccnc23)cc1.c1ccc(-c2ccnc3c2ccc2c(-c4ccccc4)ccnc23)cc1 [[Ru(dip)2(CH3bpy-COO)]^+] | 1.17 ± 0.04 ×10^5 M^−1 | 1.05 ± 0.15 ×10^5 M^−1 | 1.857 ± 0.079 | 9.79 ± 0.89 µM | 6.05 ± 1.87 µM
3 | [Ru+2].c1ccc(-c2ccccn2)nc1.c1ccc(-c2ccnc3c2ccc2c(-c4ccccc4)ccnc23)cc1.c1ccc(-c2ccnc3c2ccc2c(-c4ccccc4)ccnc23)cc1 [[Ru(dip)2(bpy)]^2+] | 0.78 ± 0.02 ×10^5 M^−1 | 0.82 ± 0.01 ×10^5 M^−1 | 0.328 ± 0.026 | 27.7 ± 1.2 µM | 13.5 ± 5.3 µM
4 | O=[N+]([O-])c1nccn1CCCc1ccnc(-c2ccccn2)c1.[Ru+2].c1ccc(-c2ccnc3c2ccc2c(-c4ccccc4)ccnc23)cc1.c1ccc(-c2ccnc3c2ccc2c(-c4ccccc4)ccnc23)cc1 [[Ru(dip)2(bpy-NitroIm)]^2+] | 1.10 ± 0.06 ×10^5 M^−1 | 0.68 ± 0.01 ×10^5 M^−1 | 0.413 ± 0.083 | 17.5 ± 5.7 µM | 11.8 ± 1.2 µM
5 | [Ru(dip)2(1,3-dicyclohexyl-1-[4-carbonyl-(4′-methyl-2,2′-bipyridyl)]-urea)]Cl2 [[Ru(dip)2(CH3bpy-DCU)]^2+] | 0.98 ± 0.03 ×10^5 M^−1 | 0.60 ± 0.02 ×10^5 M^−1 | 1.114 ± 0.012 | 7.22 ± 0.34 µM | 5.43 ± 0.11 µM
